In article PMC12079444, “Antagonist Targeting the Species‐Specific Fatty Acid Dehydrogenase/Isomerase FabX for Anti‐H. pylori Infection” (Advanced Science, 2025):
Values after ≈ are worked out from the molar mass of the structure shown. Where two headings read alike, the source gives them in different places.

Tests used:
FabX [1] = molecular target: T1, FabX (Helicobacter pylori, UniProt O25465); experiment: biochemical; set-up: FabX-FabI enzyme-coupled assay, NADH consumption read-out of FabX inhibition; conditions: for inhibition at 10 µM: read-out: Inhibition (%) 10 μM; for inhibition at 1 µM: read-out: Inhibition (%) 1 μM
T1 construct: gene HP_0773; recombinant from pQE2 vector in E. coli BL21(DE3) Rosetta, Ni-NTA, HiTrap-SP, Superdex75; FMN and [4Fe-4S] cofactors
T1 sequence (O25465 1-363): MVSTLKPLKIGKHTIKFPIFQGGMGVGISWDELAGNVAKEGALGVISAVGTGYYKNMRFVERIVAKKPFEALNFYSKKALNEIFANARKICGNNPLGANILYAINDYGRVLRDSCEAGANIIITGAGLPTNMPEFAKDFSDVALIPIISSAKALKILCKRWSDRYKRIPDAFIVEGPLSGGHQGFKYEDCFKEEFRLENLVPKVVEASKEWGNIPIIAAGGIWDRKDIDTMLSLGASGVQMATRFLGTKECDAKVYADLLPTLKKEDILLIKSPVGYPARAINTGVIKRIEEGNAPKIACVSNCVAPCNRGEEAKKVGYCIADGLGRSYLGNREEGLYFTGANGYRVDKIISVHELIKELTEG
Excerpt: To discover small molecule inhibitors targeting FabX, we performed protein thermal shift assay (PTSA) based high‐throughput screening against an in‐house chemical library of 11000 small molecule compounds, and established a multienzymatic cascade reaction system by incorporating the enoyl acyl carrier protein reductase FabI from H. pylori into the hit validation system, where FabI catalyzes the reduction of FabX catalytic product enoyl‐ACP in the fourth step of the elongation cycle, accompanying the elimination of NADH (Figure 2A,B). […] Subsequently, the inhibitory activities of these derivatives at 10 × 10^−6 and 1 × 10^−6 M were evaluated, and the structure–activity relationship (SAR) was analyzed (Figure S2, Supporting Information). In the first round of SAR, we briefly examined the influence of the substituents’ positions (C3 and C4), the electronic effects, and the polarity in the A moiety. We synthesized compounds 1a‐1l and evaluated their enzymatic activities (Table S1, Supporting Information). […] In particular, 3‐CN (1e) and 3‐COOH (1i) enhanced the inhibitory activity. We speculate that these two groups may act as hydrogen bond acceptors, forming hydrogen bonds with FabX and enhancing the interaction. We then retained the 3‐CN group in the A moiety and optimized the B moiety to investigate the 2,4‐disubstitution by synthesizing 8a‐8c (Figure 3). […] [picture] Figure S1. Schematic diagram of Type-II fatty acid biosynthesis pathway (FAS-II) in Helicobacter pylori. FabX (red sphere) catalyzes the dehydrogenation and isomerization of the saturated acyl group on ACP (the fifth step in the elongation cycle) for cis-double bond introduction and UFA synthesis. The black and blue curves indicate the SFA and UFA synthesis processes, respectively, while the blue dashes indicate the absence of the conventional fabA gene in the genome of H. pylori. [picture] Figure S2. Bioactivity evaluation of FBX-1 derivatives at 10 μM and 1 μM in the FabX-FabI enzyme-coupled assay. [picture] Figure S3. Overexpression of FabX in strain BHKS211. BHKS210 (NSH57/Vec) and BHKS211 (NSH57/fabX) were cultured in BHI broth supplemented with 10% FCS to an OD600 of 0.3 and then harvested. RNA isolation, reverse transcription, and real-time PCR were performed as described in the EXPERIMENTAL METHODS section. The relative levels of fabX expression in BHKS211 compared to the control strain BHKS210 are represented. The data are the averages ± standard deviations from three independent experiments.

FabX [2] = molecular target: T1, FabX; experiment: FabX-FabI coupled assay, NADH absorbance […] nm; assay type: biochemical
[3] = test system: T2, Helicobacter pylori BHKS 210; experiment: microbe, parasite or virus in culture; conditions: BHKS210, read-out: MIC
T2 construct: BHKS210 (NSH57/empty vector pTM117) wild-type NSH57 with empty vector
Experimental: (§1) The sensitivity of H. pylori strains to various compounds was assessed by determining the MIC and evaluating the growth of the strains on the drug‐containing agar media. The MIC was measured using the broth microdilution assay as described previously.^[ [27] ^] Twofold serial dilutions of the test compounds were prepared using BHI broth supplemented with 10% FCS in 96‐well microtiter plates. Diluted H. pylori cultures, adjusted to a final concentration of 5 × 10^5 CFU mL^−1, were then added to each well. The cultures were incubated for 48–72 h in a microaerobic environment at 37 °C. The MIC was determined by visual inspection. H. pylori strains used in this study were cultured on brain heart infusion (BHI) broth (Oxoid, UK) or Columbia blood agar medium (Oxoid, UK) supplemented with 10% fetal calf serum (FCS). The cultures were incubated at 37 °C for 48–72 h under microaerobic environments in a double‐gas CO2 incubator (Binder, Germany). The wild‐type strains G27 and NSH57 used in this study were kindly provided by Prof. Nina R. Salama from the Fred Hutchinson Cancer Research Center (USA). Three clinical H. pylori strains (BYES129, BY924, and JIGC0009) were isolated from biopsy samples from three patients with gastritis or gastric cancer using standard protocols. Strains BHKS551 (NSH57 IR0203::fabA ΔfabX) and BHKS568 (NSH57 IR0203::fabX ΔfabX) were described previously.^[ [19] ^] The following 15 reference strains of different species were also used: Escherichia coli ATCC 25922, Klebsiella pneumoniae ATCC 35657, Pseudomonas aeruginosa PAO1, Salmonella enterica serovar Typhimurium ATCC 14028, Shigella dysenteriae Sd197, Acinetobacter baumannii ATCC 19606, Proteus mirabilis ATCC 29906, Enterobacter cloacae ATCC 13047, Stenotrophomonas maltophilia ATCC 51331, Bacillus subtilis 168, Enterococcus faecium ATCC 19434, Staphylococcus aureus ATCC 25923, Staphylococcus haemolyticus ATCC 29970, Listeria monocytogenes EGDe, and Morganella morganii ATCC 25830. These non‐Helicobacter bacterial strains were cultured as described previously.^[ [25] ^] We evaluated the antibacterial activities of selected compounds (IC 50 < 1 × 10^−6 M) against several H. pylori strains (Table S3∖, Supporting Information), particularly against strains BHKS551 and BHKS211 (the FabX overexpressed strain, hereinafter referred to as FabX^OE) to validate the on‐target effect in vivo. Note that FabX is overproduced 3.32‐fold in strain BHKS211 compared to the control strain BHKS210 carrying the empty vector (Figure S3, Supporting Information). […] This could be due to the fact that the carboxyl group of 8j readily deprotonates and acquires negative charge at physiological pH, which reduces its lipophilicity and prevents it from permeating the bacterial cell membrane. To address this issue, we employed a prodrug strategy and synthesized esters from 8j by attaching it to lipophilic alcohols (8p‐8u) or a lipophilic cation 6‐hydroxyhexyltriphenylphosphonium bromide (8v) (Figure 3). […] Compounds 8p‐8s were synthesized as shown in Scheme 1, while compounds 8t‐8v were synthesized as described in Scheme 3 . 8q was hydrolyzed with NaOH to yield 8j, which was subsequently reacted with various alcohols by Steglich esterification to produce compounds 8t‐8v.

[4] = test system: T3, Helicobacter pylori Hp129; experiment: microbe, parasite or virus in culture; conditions: HP129, read-out: MIC
T3 construct: Hp129
Experimental: as §1

[5] = test system: T4, Helicobacter pylori BHKS 568; experiment: microbe, parasite or virus in culture; conditions: BHKS568, read-out: MIC
T4 construct: BHKS568 (NSH57 IR0203::fabX ΔfabX) native fabX relocated to IR0203
Experimental: as §1

Helicobacter pylori G27 = test system: T5, Helicobacter pylori G27; experiment: microbe, parasite or virus in culture; conditions: G27, read-out: MIC
T5 construct: G27
Experimental: as §1

FabX [6] = molecular target: T1, FabX; experiment: biochemical; set-up: FabX inhibition in multienzymatic cascade coupled to FabI, NADH consumption read-out; conditions: read-out: % inhibition
Excerpt: To discover small molecule inhibitors targeting FabX, we performed protein thermal shift assay (PTSA) based high‐throughput screening against an in‐house chemical library of 11000 small molecule compounds, and established a multienzymatic cascade reaction system by incorporating the enoyl acyl carrier protein reductase FabI from H. pylori into the hit validation system, where FabI catalyzes the reduction of FabX catalytic product enoyl‐ACP in the fourth step of the elongation cycle, accompanying the elimination of NADH (Figure 2A,B). […] The subcloning, expression, and purification of FabX, FabI, and ACP from H. pylori, FabK from S. pneumoniae, and FabA from E. coli were described previously.^[ [19] ^] Briefly, fabX, fabI, fabK, and fabA genes were subcloned to pQE2 vector, while the Acp gene was subcloned to pET32a vector, respectively. The proteins were expressed in BL21(DE3) Rosetta cells, purified by using Ni‐NTA affinity column, HiTrap‐SP column, GE HiLoad 16/600 Superdex75 prep grade gel‐filtration column. The peaks from the gel‐filtration column were further pooled, concentrated, and the final concentration of the proteins was quantified by the Bradford reagent purchased from Bio‐Rad.

FabX [7] = molecular target: T1, FabX; experiment: FabX-FabI coupled assay, NADH absorbance […] nm; assay type: biochemical; conditions: read-out: FabX enzymatic activity / 10 × 10^-6 M [%]

SMILES | inhibition at 10 µM (FabX [1]) [%] | inhibition at 1 µM (FabX [1]) [%] | IC50 (FabX [2]) [µM] | also measured
O=S(=O)(Nc1cccc(I)c1)c1cccnc1Nc1ccc(Cl)cc1 [1c, 2-((4-chlorophenyl)amino)-N-(3-iodophenyl)pyridine-3-sulfonamide] | 23 |  |  | 
N#Cc1ccc(NS(=O)(=O)c2cccnc2Nc2ccc(Cl)cc2)cc1 [1d, 2-((4-chlorophenyl)amino)-N-(4-cyanophenyl)pyridine-3-sulfonamide] | 12 |  |  | 
N#Cc1cccc(NS(=O)(=O)c2cccnc2Nc2ccc(Cl)cc2)c1 [1e] | 88 | 31 |  | 
COc1ccc(NS(=O)(=O)c2cccnc2Nc2ccc(Cl)cc2)cc1 [1f] | 23 |  |  | 
COc1cccc(NS(=O)(=O)c2cccnc2Nc2ccc(Cl)cc2)c1 [1g] | 21 |  |  | 
CCOC(=O)c1cccc(NS(=O)(=O)c2cccnc2Nc2ccc(Cl)cc2)c1 [1h] | 35 |  |  | 
O=C(O)c1cccc(NS(=O)(=O)c2cccnc2Nc2ccc(Cl)cc2)c1 [1i] | 65 | 19 |  | 
C#Cc1cccc(NS(=O)(=O)c2cccnc2Nc2ccc(Cl)cc2)c1 [1j] | 63 |  |  | 
O=S(=O)(Nc1ccc(F)nc1)c1cccnc1Nc1ccc(Cl)cc1 [1k] | 12 |  |  | 
O=S(=O)(NCc1ccccc1)c1cccnc1Nc1ccc(Cl)cc1 [1l] | 25 | 12 |  | 
N#Cc1cccc(NS(=O)(=O)c2cccnc2Nc2ccc(Cl)cc2Cl)c1 [8c] | 100 | 77 | 0.625 ± 0.082 | 
O=c1[nH]c(-c2cccc(NS(=O)(=O)c3cccnc3Nc3ccc(Cl)cc3Cl)c2)no1 [8k] |  |  | 0.665 ± 0.085 | 
O=S(=O)(Nc1cccc(-c2nnn[nH]2)c1)c1cccnc1Nc1ccc(Cl)cc1Cl [8l] |  |  | 0.904 ± 0.177 | 
O=C1COc2ccc(NS(=O)(=O)c3cccnc3Nc3ccc(Cl)cc3Cl)cc2N1 [8m] |  |  | 0.249 ± 0.038 | 
O=S(=O)(Nc1cccc(O)c1)c1cccnc1Nc1ccc(Cl)cc1Cl [8n] |  |  | 0.945 ± 0.111 | 
COC(=O)c1cccc(NS(=O)(=O)c2cccnc2Nc2ccc(Cl)cc2Cl)c1 [8p, FBX-1991] |  |  | 0.158 ± 0.03 | MIC [3]: 16 µg/mL (≈ 35.4 µM); MIC [4]: 16 µg/mL (≈ 35.4 µM); MIC [5]: 16 µg/mL (≈ 35.4 µM); MIC (Helicobacter pylori G27): 16 µg/mL (≈ 35.4 µM); inhibition at 1 µM (FabX [6]): 83%; inhibition at 10 µM (FabX [6]): 98%
CCOC(=O)c1cccc(NS(=O)(=O)c2cccnc2Nc2ccc(Cl)cc2Cl)c1 [8q] |  |  | 0.552 ± 0.118 | MIC [3]: 32 µg/mL (≈ 68.6 µM); MIC [4]: 16 µg/mL (≈ 34.3 µM); MIC [5]: 16 µg/mL (≈ 34.3 µM); MIC (Helicobacter pylori G27): 16 µg/mL (≈ 34.3 µM); inhibition at 1 µM (FabX [6]): 60%; inhibition at 10 µM (FabX [6]): 100%
CC(C)OC(=O)c1cccc(NS(=O)(=O)c2cccnc2Nc2ccc(Cl)cc2Cl)c1 [8r] |  |  |  | MIC [3]: 32 µg/mL (≈ 66.6 µM); MIC [4]: 32 µg/mL (≈ 66.6 µM); MIC [5]: 32 µg/mL (≈ 66.6 µM); MIC (Helicobacter pylori G27): 64 µg/mL (≈ 133 µM); inhibition at 10 µM (FabX [7]): 37%
O=C(OCCCCCC[P+](c1ccccc1)(c1ccccc1)c1ccccc1)c1cccc(NS(=O)(=O)c2cccnc2Nc2ccc(Cl)cc2Cl)c1 [8v] |  |  |  | MIC [3]: 16 µg/mL; MIC [5]: 16 µg/mL; MIC (Helicobacter pylori G27): 32 µg/mL; inhibition at 10 µM (FabX [7]): 42%
N#Cc1cccc(NS(=O)(=O)c2ccncc2Nc2ccc(Cl)cc2Cl)c1 [11a, N-(3-cyanophenyl)-3-((2,4-dichlorophenyl)amino)pyridine-4-sulfonamide] | 100 | 100 |  | IC50 (FabX [1]): 0.48 ± 0.061 µM
N#Cc1cccc(NS(=O)(=O)c2ncccc2Nc2ccc(Cl)cc2Cl)c1 [11c, N-(3-cyanophenyl)-3-((2,4-dichlorophenyl)amino)pyridine-2-sulfonamide] | 60 | 17 |  | 
N#Cc1cccc(NS(=O)(=O)c2ccccc2Nc2ccc(Cl)cc2Cl)c1 [11d, N-(3-cyanophenyl)-2-((2,4-dichlorophenyl)amino)benzenesulfonamide] | 94 | 60 |  | IC50 (FabX [1]): 2.38 ± 0.225 µM
O=S(=O)(Nc1ccc(F)cc1)c1cccnc1Nc1ccc(Cl)cc1 [FBX-1] |  |  | 9.7 ± 1 | 
